Earlier results on one substance are cited in patent US20240016419A1, “ELECTROCHEMICAL GLUCOSE SENSING BY EQUILIBRIUM GLUCOSE BINDING TO GENETICALLY ENGINEERED GLUCOSE BINDING PROTEINS” (Cercacor Laboratories, Inc., priority 2022, published 2024).

pKd: −log10 of the molar value.

“A213R: GGBP with Alanine residue at the 213 position changed to an Arginine residue”: the binding constant shift (A213R versus wild-type GGBP, from 0.2 μM to 1 mM) is recorded as 5000 fold. Further, for the setting “binding to glucose, read-out: binding constant”, the pKd is 3.00.
